Test results published in ChEMBL document CHEMBL5038635, “Discovery of Salidroside-Derivated Glycoside Analogues as Novel Angiogenesis Agents to Treat Diabetic Hind Limb Ischemia” (J Med Chem, 2022).
Values after ≈ are worked out from the molar mass of the structure shown. Active and inactive are the calls of the source. The rule behind the calls is not given here.

What was measured:
[1] = target: Hypoxia-inducible factor 1-alpha (Mus musculus) (UniProt Q61221); assay: Inhibition of HIF-1alpha in mouse C2C12 cells transfected with HRE-driven firefly luciferase gene assessed as fold change in transcriptional activity at 300 uM pretreated with compound for 12 hr followed by hypoxic condition for 24 hrs by dual luciferase reporter gene assay; format: cell-based; conditions: time 36.0 hrs
[2] = target: Hypoxia-inducible factor 1-alpha (Mus musculus) (UniProt Q61221); assay: Inhibition of HIF-1alpha in mouse C2C12 cells transfected with PDGF-B driven firefly luciferase gene assessed as transcriptional activity pretreated with compound for 12 hr followed by hypoxic condition for 24 hrs by dual luciferase reporter gene assay; format: cell-based; conditions: time 36.0 hrs
[3] = Water solubility of the compound by HPLC analysis
[4] = Octanol/Water partition coefficient, log P of the compound by HPLC-UV analysis
[5] = Permeability coefficient across basolateral to apical side in human Caco-2 cells by HPLC-UV analysis
[6] = Efflux ratio of Apparent permeability across basolateral to apical side over apical to basolateral side in human Caco-2 cells
[7] = Dissociation constant, pKa of compound by UV-visible spectrometric method; format: physicochemical
[8] = Permeability coefficient across apical to basolateral side in human Caco-2 cells by HPLC-UV analysis

Sequence of Hypoxia-inducible factor 1-alpha (Mus musculus) (Q61221 whole entry): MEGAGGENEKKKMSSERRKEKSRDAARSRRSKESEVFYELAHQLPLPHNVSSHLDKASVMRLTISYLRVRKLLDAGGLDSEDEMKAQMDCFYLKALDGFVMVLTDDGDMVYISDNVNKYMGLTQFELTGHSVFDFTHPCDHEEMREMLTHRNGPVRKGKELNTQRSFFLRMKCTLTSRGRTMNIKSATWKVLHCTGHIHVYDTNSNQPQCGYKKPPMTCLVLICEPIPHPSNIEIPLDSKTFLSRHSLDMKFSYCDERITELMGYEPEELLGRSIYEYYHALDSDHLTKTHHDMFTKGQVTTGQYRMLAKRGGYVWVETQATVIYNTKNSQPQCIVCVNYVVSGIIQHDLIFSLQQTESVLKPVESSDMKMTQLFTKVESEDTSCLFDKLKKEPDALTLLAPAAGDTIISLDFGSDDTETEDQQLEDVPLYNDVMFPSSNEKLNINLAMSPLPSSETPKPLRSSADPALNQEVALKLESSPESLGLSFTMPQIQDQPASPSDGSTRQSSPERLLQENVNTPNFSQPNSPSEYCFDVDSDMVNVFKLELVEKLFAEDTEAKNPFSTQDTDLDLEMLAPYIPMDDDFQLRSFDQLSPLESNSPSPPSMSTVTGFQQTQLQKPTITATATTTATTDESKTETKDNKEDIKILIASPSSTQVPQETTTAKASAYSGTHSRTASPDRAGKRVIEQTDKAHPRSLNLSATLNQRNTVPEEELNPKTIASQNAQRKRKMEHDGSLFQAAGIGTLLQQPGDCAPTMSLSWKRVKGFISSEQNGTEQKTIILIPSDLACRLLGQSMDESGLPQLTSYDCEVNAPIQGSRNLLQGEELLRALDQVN

fold change (FC) [1] | inhibition [2] | Compound | also measured
1.69 | Active | COc1ccc(CCO[C@@H]2O[C@H](CO)[C@@H](O)[C@H](O)[C@H]2O)cc1 | –
1.63 | Active | OC[C@H]1O[C@@H](OCC2(c3ccc(O)cc3)CCC2)[C@H](O)[C@@H](O)[C@@H]1O | –
0.78 | – | COc1ccc(Cc2ccccc2O[C@@H]2O[C@H](CO)[C@@H](O)[C@H](O)[C@H]2O)cc1 [SERGLIFLOZIN A] | solubility [3]: 6.71 mg/mL (≈ 17.8 mM); logP [4]: 1.07; Papp B→A [5]: 18.2 nm/s; efflux ratio [6]: 1.04; pKa [7]: > 14; Papp A→B [8]: 17.5 nm/s
– | Active | COc1ccc(C(C)(C)CO[C@@H]2O[C@H](CO)[C@@H](O)[C@H](O)[C@H]2O)cc1 | –
1.76 | Active | OC[C@H]1O[C@@H](OCCc2ccccc2)[C@H](O)[C@@H](O)[C@@H]1O | –
1.52 | – | OC[C@H]1O[C@@H](OCCCc2ccc(O)cc2)[C@H](O)[C@@H](O)[C@@H]1O | –
– | – | OC[C@H]1O[C@@H](Oc2ccc(Cc3ccc(O)cc3)cc2)[C@H](O)[C@@H](O)[C@@H]1O | solubility [3]: 1.64 mg/mL (≈ 4.53 mM); logP [4]: 0.076; Papp B→A [5]: 14.2 nm/s; efflux ratio [6]: 1.09; pKa [7]: 10.4; Papp A→B [8]: 13 nm/s
1.73 | – | CC(C)(CO[C@@H]1O[C@H](CO)[C@@H](O)[C@H](O)[C@H]1O)c1ccc(O)cc1 | –
2.5 | Active | COc1ccc(-c2cccc(O[C@@H]3O[C@H](CO)[C@@H](O)[C@H](O)[C@H]3O)c2)cc1 | –
2.5 | Active | COc1ccc(-c2ccc(O[C@@H]3O[C@H](CO)[C@@H](O)[C@H](O)[C@H]3O)cc2)cc1 | –
– | inactive | OC[C@H]1O[C@@H](CCCc2ccc(O)cc2)[C@H](O)[C@@H](O)[C@@H]1O | –
– | – | OC[C@H]1O[C@@H](Oc2ccc(Cc3ccc(O)c(O)c3)cc2)[C@H](O)[C@@H](O)[C@@H]1O | HIF-1alpha inhibition call (active/inactive) [1]: Active
– | – | O=S1(=O)OC(c2ccc(O)cc2)(c2ccc(O)cc2)c2ccccc21 [PHENOLSULFONPHTHALEIN] | Papp A→B [8]: 3.5 nm/s
– | – | C[C@H]1O[C@@H](O[C@H]2[C@@H](O)C[C@H](O[C@H]3[C@@H](O)C[C@H](O[C@H]4CC[C@@]5(C)[C@H](CC[C@@H]6[C@@H]5C[C@@H](O)[C@]5(C)[C@@H](C7=CC(=O)OC7)CC[C@]65O)C4)O[C@@H]3C)O[C@@H]2C)C[C@H](O)[C@@H]1O [DIGOXIN] | Papp B→A [5]: 147 nm/s; efflux ratio [6]: 11.1; Papp A→B [8]: 13.3 nm/s
1.47 | Active | OC[C@H]1O[C@@H](OCCc2ccc(F)cc2)[C@H](O)[C@@H](O)[C@@H]1O | –
